Measurements reported in ChEMBL document CHEMBL3045835, “Comparative study of conventional and microwave-assisted synthesis of some Schiff bases and their potential as antimicrobial agents” (2012).
≈ marks a conversion by molar mass, not a printed value.

Legend:
Type in all cases: functional
Pseudomonas fluorescens [1] = experiment: Antibacterial activity against Pseudomonas fluorescens MTCC 2421 at 1500 ug/ml after 18 hr by cup-plate method; settings: MTCC 2421, 18 h, read-out: DIZ
Aspergillus niger [2] = experiment: Antifungal activity against Aspergillus niger MTCC 2546 at 500 ug/ml after 18 hr by cup-plate method; settings: MTCC 2546, 18 h, read-out: DIZ
Bacillus pumilus [3] = experiment: Antibacterial activity against Bacillus pumilus MTCC 1456 after 24 hr by broth dilution method; settings: MTCC 1456, 24 h
Bacillus subtilis [4] = experiment: Antibacterial activity against Bacillus subtilis MTCC 441 at 500 ug/ml after 18 hr by cup plate method; settings: MTCC 441, 18 h, read-out: DIZ
Penicillium chrysogenum [5] = experiment: Antifungal activity against Penicillium chrysogenum MTCC 161 at 200 ug/ml after 18 hr by cup-plate method; settings: MTCC 161, 18 h, read-out: DIZ
Escherichia coli [6] = experiment: Antibacterial activity against Escherichia coli MTCC 1573 at 1500 ug/ml after 18 hr by cup-plate method; settings: MTCC 1573, 18 h, read-out: DIZ
Bacillus pumilus [7] = experiment: Antibacterial activity against Bacillus pumilus MTCC 1456 at 100 ug/ml after 18 hr by cup-plate method; settings: MTCC 1456, 18 h, read-out: DIZ
Bacillus subtilis [8] = experiment: Antibacterial activity against Bacillus subtilis MTCC 441 at 1500 ug/ml after 18 hr by cup plate method; settings: MTCC 441, 18 h, read-out: DIZ
Bacillus pumilus [9] = experiment: Antibacterial activity against Bacillus pumilus MTCC 1456 at 200 ug/ml after 18 hr by cup-plate method; settings: MTCC 1456, 18 h, read-out: DIZ
Aspergillus niger [10] = experiment: Antifungal activity against Aspergillus niger MTCC 2546 at 1000 ug/ml after 18 hr by cup-plate method; settings: MTCC 2546, 18 h, read-out: DIZ
Micrococcus luteus [11] = experiment: Antibacterial activity against Micrococcus luteus MTCC 1538 at 1000 ug/ml after 18 hr by cup-plate method; settings: MTCC 1538, 18 h, read-out: DIZ
Pseudomonas aeruginosa [12] = experiment: Antibacterial activity against Pseudomonas aeruginosa MTCC 424 at 200 ug/ml after 18 hr by cup-plate method; settings: MTCC 424, 18 h, read-out: DIZ
Escherichia coli [13] = experiment: Antibacterial activity against Escherichia coli MTCC 1573 at 100 ug/ml after 18 hr by cup-plate method; settings: MTCC 1573, 18 h, read-out: DIZ
Micrococcus luteus [14] = experiment: Antibacterial activity against Micrococcus luteus MTCC 1538 at 1500 ug/ml after 18 hr by cup-plate method; settings: MTCC 1538, 18 h, read-out: DIZ
Pseudomonas aeruginosa [15] = experiment: Antibacterial activity against Pseudomonas aeruginosa MTCC 424 at 1500 ug/ml after 18 hr by cup-plate method; settings: MTCC 424, 18 h, read-out: DIZ
Bacillus subtilis [16] = experiment: Antibacterial activity against Bacillus subtilis MTCC 441 after 24 hr by broth dilution method; settings: MTCC 441, 24 h
Pseudomonas fluorescens [17] = experiment: Antibacterial activity against Pseudomonas fluorescens MTCC 2421 at 100 ug/ml after 18 hr by cup-plate method; settings: MTCC 2421, 18 h, read-out: DIZ
Escherichia coli [18] = experiment: Antibacterial activity against Escherichia coli MTCC 1573 at 200 ug/ml after 18 hr by cup-plate method; settings: MTCC 1573, 18 h, read-out: DIZ
Micrococcus luteus [19] = experiment: Antibacterial activity against Micrococcus luteus MTCC 1538 at 500 ug/ml after 18 hr by cup-plate method; settings: MTCC 1538, 18 h, read-out: DIZ
Penicillium chrysogenum [20] = experiment: Antifungal activity against Penicillium chrysogenum MTCC 161 at 1000 ug/ml after 18 hr by cup-plate method; settings: MTCC 161, 18 h, read-out: DIZ
Aspergillus niger [21] = experiment: Antifungal activity against Aspergillus niger MTCC 2546 after 24 hr by broth dilution method; settings: MTCC 2546, 24 h
Escherichia coli [22] = experiment: Antibacterial activity against Escherichia coli MTCC 1573 at 500 ug/ml after 18 hr by cup-plate method; settings: MTCC 1573, 18 h, read-out: DIZ
Pseudomonas aeruginosa [23] = experiment: Antibacterial activity against Pseudomonas aeruginosa MTCC 424 at 100 ug/ml after 18 hr by cup-plate method; settings: MTCC 424, 18 h, read-out: DIZ
Bacillus subtilis [24] = experiment: Antibacterial activity against Bacillus subtilis MTCC 441 at 200 ug/ml after 18 hr by cup plate method; settings: MTCC 441, 18 h, read-out: DIZ
Penicillium chrysogenum [25] = experiment: Antifungal activity against Penicillium chrysogenum MTCC 161 at 1500 ug/ml after 18 hr by cup-plate method; settings: MTCC 161, 18 h, read-out: DIZ
Micrococcus luteus [26] = experiment: Antibacterial activity against Micrococcus luteus MTCC 1538 after 24 hr by broth dilution method; settings: MTCC 1538, 24 h
Escherichia coli [27] = experiment: Antibacterial activity against Escherichia coli MTCC 1573 at 1000 ug/ml after 18 hr by cup-plate method; settings: MTCC 1573, 18 h, read-out: DIZ
Pseudomonas fluorescens [28] = experiment: Antibacterial activity against Pseudomonas fluorescens MTCC 2421 at 500 ug/ml after 18 hr by cup-plate method; settings: MTCC 2421, 18 h, read-out: DIZ
Penicillium chrysogenum [29] = experiment: Antifungal activity against Penicillium chrysogenum MTCC 161 at 100 ug/ml after 18 hr by cup-plate method; settings: MTCC 161, 18 h, read-out: DIZ
Pseudomonas fluorescens [30] = experiment: Antibacterial activity against Pseudomonas fluorescens MTCC 2421 at 1000 ug/ml after 18 hr by cup-plate method; settings: MTCC 2421, 18 h, read-out: DIZ
Escherichia coli [31] = experiment: Antibacterial activity against Escherichia coli MTCC 1573 after 24 hr by broth dilution method; settings: MTCC 1573, 24 h
Bacillus pumilus [32] = experiment: Antibacterial activity against Bacillus pumilus MTCC 1456 at 1500 ug/ml after 18 hr by cup-plate method; settings: MTCC 1456, 18 h, read-out: DIZ
Aspergillus niger [33] = experiment: Antifungal activity against Aspergillus niger MTCC 2546 at 200 ug/ml after 18 hr by cup-plate method; settings: MTCC 2546, 18 h, read-out: DIZ
Pseudomonas aeruginosa [34] = experiment: Antibacterial activity against Pseudomonas aeruginosa MTCC 424 at 1000 ug/ml after 18 hr by cup-plate method; settings: MTCC 424, 18 h, read-out: DIZ
Staphylococcus aureus [35] = experiment: Antibacterial activity against Staphylococcus aureus MTCC 1430 at 1000 ug/ml after 18 hr by cup-plate method; settings: MTCC 1430, 18 h, read-out: DIZ
Pseudomonas aeruginosa [36] = experiment: Antibacterial activity against Pseudomonas aeruginosa MTCC 424 after 24 hr by broth dilution method; settings: MTCC 424, 24 h
Bacillus subtilis [37] = experiment: Antibacterial activity against Bacillus subtilis MTCC 441 at 1000 ug/ml after 18 hr by cup plate method; settings: MTCC 441, 18 h, read-out: DIZ
Pseudomonas aeruginosa [38] = experiment: Antibacterial activity against Pseudomonas aeruginosa MTCC 424 at 500 ug/ml after 18 hr by cup-plate method; settings: MTCC 424, 18 h, read-out: DIZ
Aspergillus niger [39] = experiment: Antifungal activity against Aspergillus niger MTCC 2546 at 1500 ug/ml after 18 hr by cup-plate method; settings: MTCC 2546, 18 h, read-out: DIZ
Penicillium chrysogenum [40] = experiment: Antifungal activity against Penicillium chrysogenum MTCC 161 after 24 hr by broth dilution method; settings: MTCC 161, 24 h
Pseudomonas fluorescens [41] = experiment: Antibacterial activity against Pseudomonas fluorescens MTCC 2421 at 200 ug/ml after 18 hr by cup-plate method; settings: MTCC 2421, 18 h, read-out: DIZ
Staphylococcus aureus [42] = experiment: Antibacterial activity against Staphylococcus aureus MTCC 1430 after 24 hr by broth dilution method; settings: MTCC 1430, 24 h
Staphylococcus aureus [43] = experiment: Antibacterial activity against Staphylococcus aureus MTCC 1430 at 200 ug/ml after 18 hr by cup-plate method; settings: MTCC 1430, 18 h, read-out: DIZ
Staphylococcus aureus [44] = experiment: Antibacterial activity against Staphylococcus aureus MTCC 1430 at 1500 ug/ml after 18 hr by cup-plate method; settings: MTCC 1430, 18 h, read-out: DIZ
Micrococcus luteus [45] = experiment: Antibacterial activity against Micrococcus luteus MTCC 1538 at 200 ug/ml after 18 hr by cup-plate method; settings: MTCC 1538, 18 h, read-out: DIZ
Micrococcus luteus [46] = experiment: Antibacterial activity against Micrococcus luteus MTCC 1538 at 100 ug/ml after 18 hr by cup-plate method; settings: MTCC 1538, 18 h, read-out: DIZ
Bacillus subtilis [47] = experiment: Antibacterial activity against Bacillus subtilis MTCC 441 at 100 ug/ml after 18 hr by cup plate method; settings: MTCC 441, 18 h, read-out: DIZ
Aspergillus niger [48] = experiment: Antifungal activity against Aspergillus niger MTCC 2546 at 100 ug/ml after 18 hr by cup-plate method; settings: MTCC 2546, 18 h, read-out: DIZ
Staphylococcus aureus [49] = experiment: Antibacterial activity against Staphylococcus aureus MTCC 1430 at 500 ug/ml after 18 hr by cup-plate method; settings: MTCC 1430, 18 h, read-out: DIZ
Penicillium chrysogenum [50] = experiment: Antifungal activity against Penicillium chrysogenum MTCC 161 at 500 ug/ml after 18 hr by cup-plate method; settings: MTCC 161, 18 h, read-out: DIZ
Bacillus pumilus [51] = experiment: Antibacterial activity against Bacillus pumilus MTCC 1456 at 1000 ug/ml after 18 hr by cup-plate method; settings: MTCC 1456, 18 h, read-out: DIZ
Bacillus pumilus [52] = experiment: Antibacterial activity against Bacillus pumilus MTCC 1456 at 500 ug/ml after 18 hr by cup-plate method; settings: MTCC 1456, 18 h, read-out: DIZ
Pseudomonas fluorescens [53] = experiment: Antibacterial activity against Pseudomonas fluorescens MTCC 2421 after 24 hr by broth dilution method; settings: MTCC 2421, 24 h

## C(=N\c1nc[nH]n1)/c1ccco1
Pseudomonas fluorescens [1]
  zone of inhibition at 1500 µg/mL: 23 mm
Aspergillus niger [2]
  zone of inhibition at 500 µg/mL: 18 mm
Bacillus pumilus [3]
  MIC: 300 mg/L (≈ 1850 µM)
Bacillus subtilis [4]
  zone of inhibition at 500 µg/mL: 16 mm
Penicillium chrysogenum [5]
  zone of inhibition at 200 µg/mL: 15 mm
Escherichia coli [6]
  zone of inhibition at 1500 µg/mL: 25 mm
Bacillus pumilus [7]
  zone of inhibition at 100 µg/mL: 11 mm
Bacillus subtilis [8]
  zone of inhibition at 1500 µg/mL: 22 mm
Bacillus pumilus [9]
  zone of inhibition at 200 µg/mL: 15 mm
Aspergillus niger [10]
  zone of inhibition at 1000 µg/mL: 19 mm
Micrococcus luteus [11]
  zone of inhibition at 1000 µg/mL: 21 mm
Pseudomonas aeruginosa [12]
  zone of inhibition at 200 µg/mL: 11 mm
Escherichia coli [13]
  zone of inhibition at 100 µg/mL: 10 mm
Micrococcus luteus [14]
  zone of inhibition at 1500 µg/mL: 22 mm
Pseudomonas aeruginosa [15]
  zone of inhibition at 1500 µg/mL: 21 mm
Bacillus subtilis [16]
  MIC: 300 mg/L (≈ 1850 µM)
Pseudomonas fluorescens [17]
  zone of inhibition at 100 µg/mL: 13 mm
Escherichia coli [18]
  zone of inhibition at 200 µg/mL: 13 mm
Micrococcus luteus [19]
  zone of inhibition at 500 µg/mL: 18 mm
Penicillium chrysogenum [20]
  zone of inhibition at 1000 µg/mL: 18 mm
Aspergillus niger [21]
  MIC: 500 mg/L (≈ 3080 µM)
Escherichia coli [22]
  zone of inhibition at 500 µg/mL: 14 mm
Pseudomonas aeruginosa [23]
  zone of inhibition at 100 µg/mL: 10 mm
Bacillus subtilis [24]
  zone of inhibition at 200 µg/mL: 15 mm
Penicillium chrysogenum [25]
  zone of inhibition at 1500 µg/mL: 21 mm
Micrococcus luteus [26]
  MIC: 300 mg/L (≈ 1850 µM)
Escherichia coli [27]
  zone of inhibition at 1000 µg/mL: 15 mm
Pseudomonas fluorescens [28]
  zone of inhibition at 500 µg/mL: 18 mm
Penicillium chrysogenum [29]
  zone of inhibition at 100 µg/mL: 11 mm
Pseudomonas fluorescens [30]
  zone of inhibition at 1000 µg/mL: 20 mm
Escherichia coli [31]
  MIC: 400 mg/L (≈ 2470 µM)
Bacillus pumilus [32]
  zone of inhibition at 1500 µg/mL: 20 mm
Aspergillus niger [33]
  zone of inhibition at 200 µg/mL: 16 mm
Pseudomonas aeruginosa [34]
  zone of inhibition at 1000 µg/mL: 15 mm
Staphylococcus aureus [35]
  zone of inhibition at 1000 µg/mL: 15 mm
Pseudomonas aeruginosa [36]
  MIC: 500 mg/L (≈ 3080 µM)
Bacillus subtilis [37]
  zone of inhibition at 1000 µg/mL: 17 mm
Pseudomonas aeruginosa [38]
  zone of inhibition at 500 µg/mL: 13 mm
Aspergillus niger [39]
  zone of inhibition at 1500 µg/mL: 23 mm
Penicillium chrysogenum [40]
  MIC: 500 mg/L (≈ 3080 µM)
Pseudomonas fluorescens [41]
  zone of inhibition at 200 µg/mL: 16 mm
Staphylococcus aureus [42]
  MIC: 600 mg/L (≈ 3700 µM)
Staphylococcus aureus [43]
  zone of inhibition at 200 µg/mL: 12 mm
Staphylococcus aureus [44]
  zone of inhibition at 1500 µg/mL: 18 mm
Micrococcus luteus [45]
  zone of inhibition at 200 µg/mL: 16 mm
Micrococcus luteus [46]
  zone of inhibition at 100 µg/mL: 12 mm
Bacillus subtilis [47]
  zone of inhibition at 100 µg/mL: 11 mm
Aspergillus niger [48]
  zone of inhibition at 100 µg/mL: 11 mm
Staphylococcus aureus [49]
  zone of inhibition at 500 µg/mL: 14 mm
Penicillium chrysogenum [50]
  zone of inhibition at 500 µg/mL: 17 mm
Bacillus pumilus [51]
  zone of inhibition at 1000 µg/mL: 17 mm
Bacillus pumilus [52]
  zone of inhibition at 500 µg/mL: 16 mm
Pseudomonas fluorescens [53]
  MIC: 300 mg/L (≈ 1850 µM)
